{
  "source": "patent US8822440B2",
  "about": "“Inhibiting cyclin D polypeptides” (Mayo Foundation for Medical Education and Research, priority 2006, dated 2014)",
  "test_system": "My5 tumors",
  "assay": "My5 myeloma xenograft in nude mice",
  "assay_type": "in vivo",
  "settings": "for effect on My5 tumors: 85 mg/kg/dose",
  "procedure": "FIG. 14. Kinetin riboside induces tumor growth arrest in My5 and 8226 myeloma tumor xenografts. (A) Matched pairs of nude mice bearing My5 tumors were treated intra-peritoneally (i.p.) with vehicle control (□) or with kinetin riboside (▪) at escalating dose-density from 100 mg/kg once daily to 85mg/kg 5×/daily, administered 5 days per week, commencing after mean tumor volume reached 135mm^3. Mean tumor volumes±SEM are shown from the time of xenografting (n=4/group). (B) Nude mice bearing 8226 tumors were treated with vehicle (□) or with kinetin riboside (▪) (n=4/group), commencing at 85 mg/kg QID (i.p. and s.c.) when the mean tumor volume exceeded 135 mm^3.\nFemale nude X-linked immune-deficient (BNX) mice purchased from NCI-Frederick were used for in vivo studies. Animals had access to food and water ad libitum and were handled in accordance with animal care and use guidelines. Eight-week-old mice were inoculated with My5 or 8226 (2×10^7) MM cells subcutaneously (s.c.) in the right flank. Kinetin riboside (pre-dissolved in DMSO at 500 mg/mL and stored at −20° C.) was formulated daily by dropwise dissolution to 3.7 mg/mL in pre-warmed (37° C.) 0.9% saline, 1% β2-hydroxypropylcyclodextrin (Sigma) solution and was administered 1×-5× daily at 85 mg/kg/dose. The first dose daily was given intraperitoneally and remaining doses were given s.c. with increasing dosing intervals (30, 60, 120, 180 minutes). Tumor volumes were measured using vernier calipers and calculated with the formula L×W×H×2/3. P-values were calculated by paired t-test (JMP 6.0, SAS; Cary, N.C.).",
  "data": [
    {"compound": "OC[C@H]1O[C@@H](n2cnc3c(NCc4ccco4)ncnc32)[C@H](O)[C@@H]1O", "note": "[kinetin riboside, N6-Furfuryladenosine]", "values": [
      {"measurement": "effect on My5 tumors", "setting": "4× daily dosing", "value": "tumor stasis"},
      {"measurement": "effect on My5 tumors", "setting": "5x daily dosing", "value": "regression of tumors"},
      {"measurement": "effect on My5 tumor growth", "setting": "once daily, up to 100 mg/kg/day", "value": "no effect"}
    ]}
  ]
}
